Data on eleven molecules can be found in patent US5827876A, “Inhibition of bone loss by 3-(4-acrylamidobenzoyl) benzo[b]-thiophenes” (priority 1997, dated 1998).

For data set [1], the system named is ovariectomized rats. The conditions noted are these: cited from earlier work.
The target in data set [2] is T1, estrogen receptor (Homo sapiens, UniProt P03372).
T1 sequence (P03372 1-595): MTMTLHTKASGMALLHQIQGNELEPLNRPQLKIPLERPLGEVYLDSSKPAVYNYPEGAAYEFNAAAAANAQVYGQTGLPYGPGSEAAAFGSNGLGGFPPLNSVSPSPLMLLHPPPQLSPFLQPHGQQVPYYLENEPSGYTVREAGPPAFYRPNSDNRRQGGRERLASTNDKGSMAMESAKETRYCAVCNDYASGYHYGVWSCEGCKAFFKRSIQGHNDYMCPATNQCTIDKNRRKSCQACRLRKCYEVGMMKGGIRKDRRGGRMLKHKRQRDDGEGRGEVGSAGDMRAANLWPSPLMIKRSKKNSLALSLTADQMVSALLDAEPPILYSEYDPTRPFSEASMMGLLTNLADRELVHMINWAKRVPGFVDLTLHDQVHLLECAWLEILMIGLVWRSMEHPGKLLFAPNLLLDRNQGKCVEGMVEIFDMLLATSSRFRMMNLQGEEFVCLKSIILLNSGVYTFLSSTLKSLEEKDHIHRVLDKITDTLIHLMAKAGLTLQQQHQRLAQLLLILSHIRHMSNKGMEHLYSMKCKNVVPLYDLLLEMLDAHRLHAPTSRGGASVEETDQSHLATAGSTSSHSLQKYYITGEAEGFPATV
Kind of data set: Estrogen Receptor Binding/Competition Assay ([3H]17β-estradiol displacement, CHO cytosol).

For data set [3] the following is noted: background statement, cited from earlier work.
Data set [4] deals with Ishikawa cells. The data set is described as follows: Ishikawa Cell Alkaline Phosphatase Assay. Type of data set: cell-based. The conditions noted are these: Homo sapiens, reference compounds, estrogenic activity, 48 h treatment, 95% C.I. given in parentheses, read-out: ED50 values (95% C.I.), alkaline phosphatase activity. As to the method: Ishikawa Cell Alkaline Phosphatase Assay
Cell maintenance and treatment:
Ishikawa cells are maintained in DMEM/F12 (50%:50%) containing phenol red+10% fetal bovine serum. The medium also is supplemented with 2 mM Glutamax, 1% Pen/Strep and 1 mM sodium pyruvate. Five days prior to the beginning of an experiment (treatment of cells) the medium is changed to phenol red-free DMEM/F12+10% dextran coated charcoal stripped serum. On the day before treatment, cells are harvested using 0.5% trypsin/EDTA and plated at a density of 5×10^4 cells/well in 96-well tissue culture plates. […] Cells are treated for 48 hours prior to assay. […] Sample size for each compound dose is n=8.
Alkaline Phosphatase assay:
At the end of 48 hours the media is aspirated and cells are washed three times with phosphate buffered saline (PBS). 50 μl of lysis buffer (0.1M Tris-HCl, pH 9.8, 0.2% Triton X-100) is added to each well. Plates are placed at -80° C. for minimally 15 minutes. Plates are rapidly thawed at 37° C. followed by the addition of 150 μl of 0.1M Tris-HCl, pH 9.8, containing 4 mM para-nitrophenylphosphate to each well (final concentration is 3 mM pNPP).
Absorbance and slope calculations are done using the KineticCalc Application program (Bio-Tek Instruments, Inc., Winooski, Vt.). Results are expressed as the mean ±S.D. of the rate of enzyme reaction (slope) averaged over the linear portion of the kinetic reaction curve (optical density readings every 5 minutes for 30 minutes absorbance reading).

Setting [5] is: ovariectomized rats, Black et al. 1994.

Read-outs that look alike come from different tables or passages of the source.

Take `O=C(c1ccc(OCCN2CCCCC2)cc1)c1c(-c2ccc(O)cc2)sc2cc(O)ccc12` [raloxifene]: in data set [1] (setting [5]), the “effect on bone loss” value is reported as “prevents bone loss”, the “effect on serum cholesterol” value is reported as “reduces serum cholesterol” and the uterine hypertrophy result is “without causing uterine hypertrophy”. Besides, in data set [1] (species not given), the “effect on bone loss” value was “reduce bone loss” and the uterine hypertrophy entry was “without causing uterine hypertrophy”.

In the case of `O=C(c1ccc(/C=C/C(=O)N2CCCCC2)cc1)c1c(-c2ccc(O)cc2)sc2cc(O)ccc12` [Example 7, (E)-3-{4-[6-Hydroxy-2-(4-hydroxyphenyl)benzo[b]thiophene-3-carbonyl]phenyl}-1-(piperidinyl)prop-en-1-one], in data set [2], the IC50 was found to be 70 nM.

For `[F-].[Na+]` [sodium fluoride], in data set [3], the bone growth quality entry is given as “the bone growth is irregular”, the fracture incidence result is on record as “fracture incidence does not appear to be significantly lowered” and the side-effects result is listed as “significant side-effects”. Further, the bone density increase in data set [3] (up to the value) is 8-10 % a year.

As for `C[C@]12CC[C@@H]3c4ccc(O)cc4CC[C@H]3[C@@H]1CC[C@@H]2O` [17β-estradiol], the EC50 in data set [4] stood at 0.03 nM.

The molecule `CN(C)C(=O)/C=C/c1ccc(C(=O)c2c(-c3ccc(O)cc3)sc3cc(O)ccc23)cc1` [Example 3, (E)-3-{4-[6-Hydroxy-2-(4-hydroxyphenyl)benzo[b]thiophene-3-carbonyl]phenyl}-N,N-dimethylacrylamide] came in with an IC50 in data set [2] of 150 nM.

In the case of `C[C@]12CC[C@@H]3c4ccc(O)cc4CC[C@H]3[C@@H]1CCC2=O` [estrone], the EC50 in data set [4] turned out to be 0.36 nM.

Take `C[C@]12CC[C@@H]3c4ccc(O)cc4CC[C@H]3[C@@H]1C[C@@H](O)[C@@H]2O` [estriol]: the EC50 in data set [4] amounted to 0.13 nM.

For the molecule `CCN(CC)C(=O)/C=C/c1ccc(C(=O)c2c(-c3ccc(O)cc3)sc3cc(O)ccc23)cc1` [Example 5, (E)-N,N-Diethyl-3-{4-[6-hydroxy-2-(4-hydroxyphenyl)benzo[b]thiophene-3-carbonyl]phenyl}acrylamide], the IC50 in data set [2] worked out at 100 nM.

As for `C[C@]12CC[C@@H]3c4ccc(O)cc4CC[C@H]3[C@@H]1CC[C@H]2O` [17α-estradiol], the EC50 in data set [4] is 1.42 nM.

In the case of `O=C(c1ccc(/C=C/C(=O)N2CCOCC2)cc1)c1c(-c2ccc(O)cc2)sc2cc(O)ccc12` [Example 6, (E)-3-{4-[6-Hydroxy-2-(4 hydroxyphenyl)benzo[b]thiophene-3-carbonyl]-phenyl}-1-(morpholin-4-yl)prop-2-en-1-one], in data set [2], the IC50 is 170 nM.

`CC(C)(C)NC(=O)/C=C/c1ccc(C(=O)c2c(-c3ccc(O)cc3)sc3cc(O)ccc23)cc1` [Example 4, (E)-N-t-Butyl-3-{4-[6-hydroxy-2-(4-hydroxyphenyl)benzo[b]thiophene-3-carbonyl]phenyl}acrylamide] displayed an IC50 in data set [2] of 100 nM.
